For 17 compounds, IC50 and inhibition results are on record in patent US10323038B2, “Pyrazole compounds and methods of making and using same” (ABIDE THERAPEUTICS, INC., priority 2015, dated 2019).

Structures are written as SMILES.

The target of experiment [1] is MAGL (Mus musculus (Mouse), UniProt O35678). Put plainly: In vitro competitive activity-based protein profiling, MAGL (mouse). It counts as biochemical. The following applies: for inhibition at 1 µM: read-out: MAGL % inh. 1 μM (mouse). In outline:
(§1)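 Gel-based read-out: fluorescence intensity of MAGL and FAAH bands after SDS-PAGE gave serine hydrolase activity. Proteomes at 1.0 mg/mL were pretreated 30 min at 37° C with inhibitor over a concentration range, then labelled 30 min with FP-Rh or HT-01 (stock 50 μM in DMSO).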

The target in experiment [2] is FAAH (Mus musculus (Mouse), UniProt O08914). Nature of the experiment: In vitro competitive activity-based protein profiling, FAAH (mouse). It counts as biochemical. The following applies: for inhibition at 1 µM: read-out: FAAH % inh. 1 μM (mouse). In short, it runs like this: as §1
Chain of FAAH (O08914 whole entry): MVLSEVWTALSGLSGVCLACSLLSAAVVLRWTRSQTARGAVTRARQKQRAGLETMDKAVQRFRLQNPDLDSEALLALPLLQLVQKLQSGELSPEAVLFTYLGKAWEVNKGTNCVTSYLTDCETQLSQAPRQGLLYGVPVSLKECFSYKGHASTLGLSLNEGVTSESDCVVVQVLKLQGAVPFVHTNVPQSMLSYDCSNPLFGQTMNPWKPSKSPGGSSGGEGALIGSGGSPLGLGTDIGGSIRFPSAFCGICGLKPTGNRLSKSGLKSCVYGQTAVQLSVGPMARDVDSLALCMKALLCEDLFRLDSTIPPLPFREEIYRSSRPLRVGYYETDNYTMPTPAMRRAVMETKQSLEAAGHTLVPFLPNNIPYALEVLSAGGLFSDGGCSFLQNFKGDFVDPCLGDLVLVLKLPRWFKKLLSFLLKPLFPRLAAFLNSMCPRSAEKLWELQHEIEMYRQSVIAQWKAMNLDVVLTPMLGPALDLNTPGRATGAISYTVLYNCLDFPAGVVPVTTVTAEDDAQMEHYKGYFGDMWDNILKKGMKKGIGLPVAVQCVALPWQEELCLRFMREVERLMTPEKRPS

Chain of MAGL (O35678 whole entry): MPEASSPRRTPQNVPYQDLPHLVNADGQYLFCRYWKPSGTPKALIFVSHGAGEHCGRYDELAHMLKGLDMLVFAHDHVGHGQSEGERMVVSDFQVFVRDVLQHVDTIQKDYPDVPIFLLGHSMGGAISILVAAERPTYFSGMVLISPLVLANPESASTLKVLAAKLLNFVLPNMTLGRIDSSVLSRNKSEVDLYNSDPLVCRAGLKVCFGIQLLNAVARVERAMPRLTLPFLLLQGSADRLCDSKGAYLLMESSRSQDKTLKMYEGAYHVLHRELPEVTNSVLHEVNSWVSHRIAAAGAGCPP

Consider `CC(=O)N(C)c1cnn(C(=O)N2C[C@H]3C[C@@H](N(C)Cc4cc(Cl)ccc4C(F)(F)F)C[C@H]3C2)c1` [Example 161, N-(1-(cis-5-((5-chloro-2-(trifluoromethyl)benzyl)(methyl)amino)octahydrocyclopenta[c]pyrrole-2-carbonyl)-1H-pyrazol-4-yl)-N-methylacetamide], for which, in experiment [1], the IC50 is ≤ 100 nM and the inhibition at 1 µM is ≥ 75%. Besides, in experiment [2], the IC50 is ≤ 100 nM and the inhibition at 1 µM was ≥ 75%.

In the case of `CC(=O)N(C)c1cnn(C(=O)N2C[C@H]3C[C@@H](N(C)Cc4cc(Cl)ccc4Cl)C[C@H]3C2)c1` [Example 162, N-(1-(cis-5-((2,5-dichlorobenzyl)(methyl)amino)octahydrocyclopenta[c]pyrrole-2-carbonyl)-1H-pyrazol-4-yl)-N-methylacetamide], the inhibition at 1 µM in experiment [1] and in experiment [2] was ≥ 75% each time.

As to `CC(=O)N(C)c1cnn(C(=O)N2C[C@H]3C[C@@H](N(C)Cc4cc(C(F)(F)F)ccc4Cl)C[C@H]3C2)c1` [Example 163, N-(1-(cis-5-((2-chloro-5-(trifluoromethyl)benzyl)(methyl)amino)octahydrocyclopenta[c]pyrrole-2-carbonyl)-1H-pyrazol-4-yl)-N-methylacetamide], the inhibition at 1 µM in experiment [1] and in experiment [2] was ≥ 75% in each case.

Take `CC(=O)N(C)c1cnn(C(=O)N2C[C@H]3C[C@H](N(C)Cc4cc(Cl)ccc4C(F)(F)F)C[C@H]3C2)c1` [Example 164, N-(1-(trans-5-((5-chloro-2-(trifluoromethyl)benzyl)(methyl)amino)octahydrocyclopenta[c]pyrrole-2-carbonyl)-1H-pyrazol-4-yl)-N-methylacetamide]: in experiment [1], the IC50 was ≤ 100 nM and the inhibition at 1 µM was ≥ 75%. For the same compound, in experiment [2], the half-inhibitory concentration (IC50) was ≤ 100 nM and the inhibition at 1 µM is ≥ 75%.

As to `CC(=O)N(C)c1cnn(C(=O)N2C[C@H]3C[C@H](N(C)Cc4cc(Cl)ccc4Cl)C[C@H]3C2)c1` [Example 165, N-(1-(trans-5-((2,5-dichlorobenzyl)(methyl)amino)octahydrocyclopenta[c]pyrrole-2-carbonyl)-1H-pyrazol-4-yl)-N-methylacetamide], the inhibition at 1 µM in experiment [1] and in experiment [2] was ≥ 75% throughout.

`CC(=O)N(C)c1cnn(C(=O)N2C[C@H]3C[C@H](N(C)Cc4cc(C(F)(F)F)ccc4Cl)C[C@H]3C2)c1` [Example 166, N-(1-(trans-5-((2-chloro-5-(trifluoromethyl)benzyl)(methyl)amino)octahydrocyclopenta[c]pyrrole-2-carbonyl)-1H-pyrazol-4-yl)-N-methylacetamide]: the inhibition at 1 µM in experiment [1] and in experiment [2] was ≥ 75% in each case.

Consider `CC(=O)N(C)c1cnn(C(=O)N2C[C@H]3C[C@@H](N(C)Cc4cc(N5CCCC5)ccc4C(F)(F)F)C[C@H]3C2)c1` [Example 167, N-methyl-N-(1-(cis-5-(methyl(5-(pyrrolidin-1-yl)-2-(trifluoromethyl)benzyl)amino)octahydrocyclopenta[c]pyrrole-2-carbonyl)-1H-pyrazol-4-yl)acetamide], for which the inhibition at 1 µM in experiment [1] and in experiment [2] was ≥ 75% in each case.

As to `CC(=O)N(C)c1cnn(C(=O)N2C[C@H]3C[C@@H](N(C)Cc4cc(C(F)(F)F)ccc4N4CCCC4)C[C@H]3C2)c1` [Example 168, N-methyl-N-(1-(cis-5-(methyl(2-(pyrrolidin-1-yl)-5-(trifluoromethyl)benzyl)amino)octahydrocyclopenta[c]pyrrole-2-carbonyl)-1H-pyrazol-4-yl)acetamide], the values for the inhibition at 1 µM in experiment [1] and in experiment [2] were ≥ 75% and 50 to 75%, respectively.

Regarding `CC(=O)N(C)c1cnn(C(=O)N2C[C@H]3C[C@@H](N(Cc4ccccc4Cl)C(C)=O)C[C@H]3C2)c1` [Example 169, N-(2-chlorobenzyl)-N-(cis-2-(4-(N-methylacetamido)-1H-pyrazole-1-carbonyl)octahydrocyclopenta[c]pyrrol-5-yl)acetamide], the values for the inhibition at 1 µM in experiment [1] and in experiment [2] were ≥ 75% and 25 to 50%, respectively.

`CC(=O)N(C)c1cnn(C(=O)N2C[C@H]3C[C@@H](N(Cc4cccc(Cl)c4)C(C)=O)C[C@H]3C2)c1` [Example 170, N-(3-chlorobenzyl)-N-(cis-2-(4-(N-methylacetamido)-1H-pyrazole-1-carbonyl)octahydrocyclopenta[c]pyrrol-5-yl)acetamide]: the inhibition at 1 µM in experiment [1] is ≥ 75%; in experiment [2] it was 25 to 50%.

Regarding `CC(=O)N(C)c1cnn(C(=O)N2C[C@H]3C[C@@H](N(Cc4ccc(Cl)cc4)C(C)=O)C[C@H]3C2)c1` [Example 171, N-(4-chlorobenzyl)-N-(cis-2-(4-(N-methylacetamido)-1H-pyrazole-1-carbonyl)octahydrocyclopenta[c]pyrrol-5-yl)acetamide], the inhibition at 1 µM in experiment [1] was ≥ 75%; in experiment [2] it was 25 to 50%.

Regarding `CC(=O)N(C)c1cnn(C(=O)N2C[C@H]3C[C@H](N(Cc4cccc(Cl)c4)C(C)=O)C[C@H]3C2)c1` [Example 173, N-(3-chlorobenzyl)-N-(trans-2-(4-(N-methylacetamido)-1H-pyrazole-1-carbonyl)octahydrocyclopenta[c]pyrrol-5-yl)acetamide], the inhibition at 1 µM in experiment [1] is ≥ 75%; in experiment [2], 0 to 25%.

On to `CC(=O)N(C)c1cnn(C(=O)N2C[C@H]3C[C@H](N(Cc4ccc(Cl)cc4)C(C)=O)C[C@H]3C2)c1` [Example 174, N-(4-chlorobenzyl)-N-(trans-2-(4-(N-methylacetamido)-1H-pyrazole-1-carbonyl)octahydrocyclopenta[c]pyrrol-5-yl)acetamide], for which the inhibition at 1 µM in experiment [1] was ≥ 75%; in experiment [2] it was 0 to 25%.

For `CC(=O)N(C)c1cnn(C(=O)N2CC3CN(Cc4ccc(F)cc4)CC3C2)c1` (centres unmarked) [Example 178, N-(1-(5-(4-fluorobenzyl)octahydropyrrolo[3,4-c]pyrrole-2-carbonyl)-1H-pyrazol-4-yl)-N-methylacetamide], the concentration for half-maximal inhibition (IC50) in experiment [1] was 1000 to 10000 nM; in experiment [2] it was 100 to 1000 nM. Further, the figures for the inhibition at 1 µM in experiment [1] and in experiment [2] were 25 to 50% and ≥ 75%, respectively.

For the compound `COc1ccc(CN2CC3CN(C(=O)n4cc(N(C)C(C)=O)cn4)CC3C2)cc1` (centres unmarked) [Example 179, N-(1-(5-(4-methoxybenzyl)octahydropyrrolo[3,4-c]pyrrole-2-carbonyl)-1H-pyrazol-4-yl)-N-methylacetamide], the inhibition at 1 µM in experiment [1] is 25 to 50%; in experiment [2], ≥ 75%.

`CC(=O)N(C)c1cnn(C(=O)N2CC3CN(Cc4cccc(F)c4)CC3C2)c1` (centres unmarked) [Example 180, N-(1-(5-(3-fluorobenzyl)octahydropyrrolo[3,4-c]pyrrole-2-carbonyl)-1H-pyrazol-4-yl)-N-methylacetamide]: in experiment [1], the IC50 was in the range of 100 to 1000 nM and the inhibition at 1 µM was in the range of 50 to 75%. Also, in experiment [2], the half-maximal inhibitory concentration (IC50) is 100 to 1000 nM and the inhibition at 1 µM is ≥ 75%.

In the case of `COc1cccc(CN2CC3CN(C(=O)n4cc(N(C)C(C)=O)cn4)CC3C2)c1` (centres unmarked) [Example 181, N-(1-(5-(3-methoxybenzyl)octahydropyrrolo[3,4-c]pyrrole-2-carbonyl)-1H-pyrazol-4-yl)-N-methylacetamide], in experiment [1], the IC50 was in the range of 1000 to 10000 nM and the inhibition at 1 µM fell in the range of 50 to 75%. Besides, in experiment [2], the concentration for half-maximal inhibition (IC50) fell in the range of 100 to 1000 nM and the inhibition at 1 µM is ≥ 75%.
